pIC50: −log10 of the molar value.
Each compound was assayed against human PDE4D catalytic domain (UniProt no. Q08499) (Homo sapiens (Human), UniProt Q08499) (assay: PDE4 assay (TR-FRET, FAM-cAMP cleavage)). Conditions: human PDE4D catalytic domain; molar concentration giving 50% inhibition of substrate cleavage; read-out: PDE4 IC50 range.
Sequence of human PDE4D catalytic domain (Q08499 380-740 limits assumed): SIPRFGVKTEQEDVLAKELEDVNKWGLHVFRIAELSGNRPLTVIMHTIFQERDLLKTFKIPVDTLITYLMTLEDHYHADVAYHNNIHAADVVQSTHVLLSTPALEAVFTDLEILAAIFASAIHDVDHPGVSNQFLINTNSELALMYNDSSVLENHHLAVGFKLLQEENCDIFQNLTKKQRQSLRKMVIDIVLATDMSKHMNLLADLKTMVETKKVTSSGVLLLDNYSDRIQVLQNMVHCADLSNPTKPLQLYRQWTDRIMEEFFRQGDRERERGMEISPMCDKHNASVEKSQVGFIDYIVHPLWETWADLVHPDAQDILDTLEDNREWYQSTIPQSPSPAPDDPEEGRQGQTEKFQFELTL
Type: biochemical
How it was run: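 PDE4D catalytic domain ([…]) was incubated with unlabelled cAMP plus FAM-cAMP and titrated compound, stopped with binding buffer of metal-ion nanoparticles and Tb donor. AMP generation read by TR-FRET; IC50 as 50% inhibition of cleavage versus controls, reported as nM ranges.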
CCc1nn(CCCOC(=O)c2cccc(C(=O)N3CCN(C)CC3)c2)c2c1C(=O)NCC1(CCOCC1)C2 [Example 158, 3-(3-ethyl-4-oxo-spiro[6,8-dihydro-5H-pyrazolo[4,3-c]azepine-7,4′-tetrahydropyran]-1-yl)propyl 3-(4-methylpiperazine-1-carbonyl)benzoate] gave a pIC50 of 6.30 to 7.00. Compound CCc1nn(CCCOC(=O)c2cccc(C(=O)N3CCN(C(C)=O)CC3)c2)c2c1C(=O)NCC1(CCOCC1)C2 [Example 159, 3-(3-ethyl-4-oxo-spiro[6,8-dihydro-5H-pyrazolo[4,3-c]azepine-7,4′-tetrahydropyran]-1-yl)propyl 3-(4-acetylpiperazine-1-carbonyl)benzoate] has a pIC50 greater than 7.00. Work on CCc1nn(C[C@@H](C)COC(=O)C(C)C)c2c1C(=O)NCC1(CCOCC1)C2 [Example 160, [(2R)-3-(3-ethyl-4-oxo-spiro[6,8-dihydro-5H-pyrazolo[4,3-c]azepine-7,4′-tetrahydropyran]-1-yl)-2-methyl-propyl] 2-methylpropanoate] yielded a pIC50 greater than 7.00. Compound CCc1nn(C[C@@H](C)COC(=O)C2CCCC2)c2c1C(=O)NCC1(CCOCC1)C2 [Example 161, [(2R)-3-(3-ethyl-4-oxo-spiro[6,8-dihydro-5H-pyrazolo[4,3-c]azepine-7,4′-tetrahydropyran]-1-yl)-2-methyl-propyl] cyclopentanecarboxylate] has a pIC50 greater than 7.00. CCc1nn(C[C@@H](C)COC(=O)C(CC)CC)c2c1C(=O)NCC1(CCOCC1)C2 [Example 162, [(2R)-3-(3-ethyl-4-oxo-spiro[6,8-dihydro-5H-pyrazolo[4,3-c]azepine-7,4′-tetrahydropyran]-1-yl)-2-methyl-propyl] 2-ethylbutanoate] was tested, and the pIC50 was greater than 7.00. CCc1nn(C[C@@H](C)COC(=O)c2ccccc2)c2c1C(=O)NCC1(CCOCC1)C2 [Example 163, [(2R)-3-(3-ethyl-4-oxo-spiro[6,8-dihydro-5H-pyrazolo[4,3-c]azepine-7,4′-tetrahydropyran]-1-yl)-2-methyl-propyl] benzoate] was tested, and the pIC50 was greater than 7.00. CCc1nn(C[C@@H](C)COC(=O)c2ccc(C)cc2)c2c1C(=O)NCC1(CCOCC1)C2 [Example 164, [(2R)-3-(3-ethyl-4-oxo-spiro[6,8-dihydro-5H-pyrazolo[4,3-c]azepine-7,4′-tetrahydropyran]-1-yl)-2-methyl-propyl] 4-methylbenzoate] was tested, and the pIC50 was greater than 7.00. With CCc1nn(C[C@@H](C)COC(=O)c2cccc(F)c2)c2c1C(=O)NCC1(CCOCC1)C2 [Example 165, [(2R)-3-(3-ethyl-4-oxo-spiro[6,8-dihydro-5H-pyrazolo[4,3-c]azepine-7,4′-tetrahydropyran]-1-yl)-2-methyl-propyl] 3-fluorobenzoate] the pIC50 was greater than 7.00. CCc1nn(C[C@@H](C)COC(=O)c2ccc(F)cc2)c2c1C(=O)NCC1(CCOCC1)C2 [Example 166, [(2R)-3-(3-ethyl-4-oxo-spiro[6,8-dihydro-5H-pyrazolo[4,3-c]azepine-7,4′-tetrahydropyran]-1-yl)-2-methyl-propyl] 4-fluorobenzoate] showed a pIC50 greater than 7.00. In the case of CCc1nn(C[C@@H](C)COC(=O)c2cccc(C#N)c2)c2c1C(=O)NCC1(CCOCC1)C2 [Example 167, [(2R)-3-(3-ethyl-4-oxo-spiro[6,8-dihydro-5H-pyrazolo[4,3-c]azepine-7,4′-tetrahydropyran]-1-yl)-2-methyl-propyl] 3-cyanobenzoate], the pIC50 was greater than 7.00. CCc1nn(C[C@@H](C)COC(=O)c2ccc(C#N)cc2)c2c1C(=O)NCC1(CCOCC1)C2 [Example 168, [(2R)-3-(3-ethyl-4-oxo-spiro[6,8-dihydro-5H-pyrazolo[4,3-c]azepine-7,4′-tetrahydropyran]-1-yl)-2-methyl-propyl] 4-cyanobenzoate] gave a pIC50 greater than 7.00. For CCc1nn(C[C@@H](C)COC(=O)c2ccc(C)c(C)c2)c2c1C(=O)NCC1(CCOCC1)C2 [Example 169, [(2R)-3-(3-ethyl-4-oxo-spiro[6,8-dihydro-5H-pyrazolo[4,3-c]azepine-7,4′-tetrahydropyran]-1-yl)-2-methyl-propyl] 3,4-dimethylbenzoate], the pIC50 was greater than 7.00. For CCc1nn(C[C@@H](C)COC(=O)c2ccc(C)cc2C)c2c1C(=O)NCC1(CCOCC1)C2 [Example 170, [(2R)-3-(3-ethyl-4-oxo-spiro[6,8-dihydro-5H-pyrazolo[4,3-c]azepine-7,4′-tetrahydropyran]-1-yl)-2-methyl-propyl] 2,4-dimethylbenzoate], the pIC50 was greater than 7.00. Work on CCc1nn(C[C@@H](C)COC(=O)c2cccc(OC)c2)c2c1C(=O)NCC1(CCOCC1)C2 [Example 171, [(2R)-3-(3-ethyl-4-oxo-spiro[6,8-dihydro-5H-pyrazolo[4,3-c]azepine-7,4′-tetrahydropyran]-1-yl)-2-methyl-propyl] 3-methoxybenzoate] yielded a pIC50 greater than 7.00. For CCc1nn(C[C@@H](C)COC(=O)c2ccc(C)cc2F)c2c1C(=O)NCC1(CCOCC1)C2 [Example 172, [(2R)-3-(3-ethyl-4-oxo-spiro[6,8-dihydro-5H-pyrazolo[4,3-c]azepine-7,4′-tetrahydropyran]-1-yl)-2-methyl-propyl] 2-fluoro-4-methyl-benzoate], the pIC50 was greater than 7.00. Compound CCc1nn(C[C@@H](C)COC(=O)c2cc(F)ccc2C)c2c1C(=O)NCC1(CCOCC1)C2 [Example 173, [(2R)-3-(3-ethyl-4-oxo-spiro[6,8-dihydro-5H-pyrazolo[4,3-c]azepine-7,4′-tetrahydropyran]-1-yl)-2-methyl-propyl] 5-fluoro-2-methyl-benzoate] has a pIC50 greater than 7.00. With CCc1nn(C[C@@H](C)COC(=O)c2c(C)cccc2F)c2c1C(=O)NCC1(CCOCC1)C2 [Example 174, [(2R)-3-(3-ethyl-4-oxo-spiro[6,8-dihydro-5H-pyrazolo[4,3-c]azepine-7,4′-tetrahydropyran]-1-yl)-2-methyl-propyl] 2-fluoro-6-methyl-benzoate] the pIC50 was greater than 7.00. CCc1nn(C[C@@H](C)COC(=O)c2ccc(Cl)cc2)c2c1C(=O)NCC1(CCOCC1)C2 [Example 175, [(2R)-3-(3-ethyl-4-oxo-spiro[6,8-dihydro-5H-pyrazolo[4,3-c]azepine-7,4′-tetrahydropyran]-1-yl)-2-methyl-propyl] 4-chlorobenzoate] showed a pIC50 greater than 7.00. In the case of CCc1nn(C[C@@H](C)COC(=O)c2c(F)cccc2F)c2c1C(=O)NCC1(CCOCC1)C2 [Example 176, [(2R)-3-(3-ethyl-4-oxo-spiro[6,8-dihydro-5H-pyrazolo[4,3-c]azepine-7,4′-tetrahydropyran]-1-yl)-2-methyl-propyl] 2,6-difluorobenzoate], the pIC50 was greater than 7.00. CCc1nn(C[C@@H](C)COC(=O)c2cc(F)ccc2F)c2c1C(=O)NCC1(CCOCC1)C2 [Example 177, [(2R)-3-(3-ethyl-4-oxo-spiro[6,8-dihydro-5H-pyrazolo[4,3-c]azepine-7,4′-tetrahydropyran]-1-yl)-2-methyl-propyl] 2,5-difluorobenzoate] was tested, and the pIC50 was greater than 7.00. With CCc1nn(C[C@@H](C)COC(=O)c2ccc(F)c(F)c2)c2c1C(=O)NCC1(CCOCC1)C2 [Example 178, [(2R)-3-(3-ethyl-4-oxo-spiro[6,8-dihydro-5H-pyrazolo[4,3-c]azepine-7,4′-tetrahydropyran]-1-yl)-2-methyl-propyl] 3,4-difluorobenzoate] the pIC50 was greater than 7.00. In the case of CCc1nn(C[C@@H](C)COC(=O)c2cccc(F)c2F)c2c1C(=O)NCC1(CCOCC1)C2 [Example 179, [(2R)-3-(3-ethyl-4-oxo-spiro[6,8-dihydro-5H-pyrazolo[4,3-c]azepine-7,4′-tetrahydropyran]-1-yl)-2-methyl-propyl] 2,3-difluorobenzoate], the pIC50 was greater than 7.00. For CCc1nn(C[C@@H](C)COC(=O)c2ccc(C(C)=O)cc2)c2c1C(=O)NCC1(CCOCC1)C2 [Example 180, [(2R)-3-(3-ethyl-4-oxo-spiro[6,8-dihydro-5H-pyrazolo[4,3-c]azepine-7,4′-tetrahydropyran]-1-yl)-2-methyl-propyl] 4-acetylbenzoate], the pIC50 was greater than 7.00. CCc1nn(C[C@@H](C)COC(=O)c2cccc(C(C)=O)c2)c2c1C(=O)NCC1(CCOCC1)C2 [Example 181, [(2R)-3-(3-ethyl-4-oxo-spiro[6,8-dihydro-5H-pyrazolo[4,3-c]azepine-7,4′-tetrahydropyran]-1-yl)-2-methyl-propyl] 3-acetylbenzoate] was tested, and the pIC50 was greater than 7.00. Compound CCc1nn(C[C@@H](C)COC(=O)c2cc(F)cc(C#N)c2)c2c1C(=O)NCC1(CCOCC1)C2 [Example 182, [(2R)-3-(3-ethyl-4-oxo-spiro[6,8-dihydro-5H-pyrazolo[4,3-c]azepine-7,4′-tetrahydropyran]-1-yl)-2-methyl-propyl] 3-cyano-5-fluoro-benzoate] has a pIC50 greater than 7.00. For CCc1nn(C[C@@H](C)COC(=O)c2cc(C#N)ccc2F)c2c1C(=O)NCC1(CCOCC1)C2 [Example 183, [(2R)-3-(3-ethyl-4-oxo-spiro[6,8-dihydro-5H-pyrazolo[4,3-c]azepine-7,4′-tetrahydropyran]-1-yl)-2-methyl-propyl] 5-cyano-2-fluoro-benzoate], the pIC50 was greater than 7.00. Work on CCc1nn(C[C@@H](C)COC(=O)c2ccc(F)c(C#N)c2)c2c1C(=O)NCC1(CCOCC1)C2 [Example 184, [(2R)-3-(3-ethyl-4-oxo-spiro[6,8-dihydro-5H-pyrazolo[4,3-c]azepine-7,4′-tetrahydropyran]-1-yl)-2-methyl-propyl] 3-cyano-4-fluoro-benzoate] yielded a pIC50 greater than 7.00. In the case of CCc1nn(C[C@@H](C)COC(=O)c2ccc(C#N)c(F)c2)c2c1C(=O)NCC1(CCOCC1)C2 [Example 185, [(2R)-3-(3-ethyl-4-oxo-spiro[6,8-dihydro-5H-pyrazolo[4,3-c]azepine-7,4′-tetrahydropyran]-1-yl)-2-methyl-propyl] 4-cyano-3-fluoro-benzoate], the pIC50 was greater than 7.00. Work on CCc1nn(C[C@@H](C)COC(=O)c2ccc(OC)c(C)c2)c2c1C(=O)NCC1(CCOCC1)C2 [Example 186, [(2R)-3-(3-ethyl-4-oxo-spiro[6,8-dihydro-5H-pyrazolo[4,3-c]azepine-7,4′-tetrahydropyran]-1-yl)-2-methyl-propyl] 4-methoxy-3-methyl-benzoate] yielded a pIC50 greater than 7.00.
